How the values were obtained:
[1] = DRUGMATRIX: Atrial Natriuretic Factor (ANF) radioligand binding (ligand: [125I] ANF (rat)); type: cell membranes, Cavia porcellus, Dunkin-Hartley, Adrenal gland, Membrane; conditions: Not Active = under 50% inhibition at 10 µM
[2] = DRUGMATRIX: Calcium Channel Type L, Benzothiazepine radioligand binding (ligand: [3H] Diltiazem); type: cell membranes, Rattus norvegicus, Wistar, Brain, Membrane; conditions: Not Active = under 50% inhibition at 10 µM
[3] = target: T1, 5-hydroxytryptamine receptor 1A (Rattus norvegicus, UniProt P19327); type: cell membranes, CHO-K1, Membrane; conditions: cho-k1; also: in other assays of this panel Not Active means under 50% inhibition at 10 µM
T1 sequence (P19327 whole entry): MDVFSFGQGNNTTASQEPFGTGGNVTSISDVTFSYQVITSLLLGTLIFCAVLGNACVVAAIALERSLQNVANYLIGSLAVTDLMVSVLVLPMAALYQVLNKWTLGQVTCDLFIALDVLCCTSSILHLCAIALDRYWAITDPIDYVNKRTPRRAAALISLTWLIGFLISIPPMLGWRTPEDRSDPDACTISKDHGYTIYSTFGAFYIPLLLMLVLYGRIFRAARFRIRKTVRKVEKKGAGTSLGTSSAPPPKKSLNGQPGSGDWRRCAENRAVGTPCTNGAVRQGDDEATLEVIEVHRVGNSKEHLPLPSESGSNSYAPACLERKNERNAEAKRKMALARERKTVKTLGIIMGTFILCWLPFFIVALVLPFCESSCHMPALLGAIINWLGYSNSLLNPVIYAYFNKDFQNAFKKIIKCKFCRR

Acetylcholinesterase = Acetylcholinesterase (Homo sapiens, UniProt P22303); assay: DRUGMATRIX: Acetylcholinesterase enzyme inhibition (substrate: acetylthiocholine); type: cell-based, HEK293; conditions: hek293; Not Active = under 50% inhibition at 10 µM
Sequence of Acetylcholinesterase (P22303 whole entry): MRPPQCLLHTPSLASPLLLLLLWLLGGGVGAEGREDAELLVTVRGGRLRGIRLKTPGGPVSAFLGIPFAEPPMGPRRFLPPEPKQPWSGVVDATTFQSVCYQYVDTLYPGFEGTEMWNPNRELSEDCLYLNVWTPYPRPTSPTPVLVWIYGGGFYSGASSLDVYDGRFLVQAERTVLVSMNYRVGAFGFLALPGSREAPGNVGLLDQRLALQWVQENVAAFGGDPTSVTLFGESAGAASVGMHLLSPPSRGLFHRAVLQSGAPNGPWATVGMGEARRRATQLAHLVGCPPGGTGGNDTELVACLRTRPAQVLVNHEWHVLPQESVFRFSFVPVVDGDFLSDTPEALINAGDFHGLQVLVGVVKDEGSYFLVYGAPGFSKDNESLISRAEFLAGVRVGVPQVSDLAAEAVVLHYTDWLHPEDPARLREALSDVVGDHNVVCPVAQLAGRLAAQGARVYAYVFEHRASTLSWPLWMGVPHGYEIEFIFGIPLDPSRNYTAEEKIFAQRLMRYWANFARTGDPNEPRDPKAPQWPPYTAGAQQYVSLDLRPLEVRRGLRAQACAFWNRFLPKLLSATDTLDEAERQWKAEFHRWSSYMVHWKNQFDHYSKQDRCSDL

[4] = target: Voltage-gated inwardly rectifying potassium channel KCNH2 (Homo sapiens, UniProt Q12809); conditions: hek293; also: in other assays of this panel Not Active means under 50% inhibition at 10 µM
Sequence of Voltage-gated inwardly rectifying potassium channel KCNH2 (Q12809 whole entry): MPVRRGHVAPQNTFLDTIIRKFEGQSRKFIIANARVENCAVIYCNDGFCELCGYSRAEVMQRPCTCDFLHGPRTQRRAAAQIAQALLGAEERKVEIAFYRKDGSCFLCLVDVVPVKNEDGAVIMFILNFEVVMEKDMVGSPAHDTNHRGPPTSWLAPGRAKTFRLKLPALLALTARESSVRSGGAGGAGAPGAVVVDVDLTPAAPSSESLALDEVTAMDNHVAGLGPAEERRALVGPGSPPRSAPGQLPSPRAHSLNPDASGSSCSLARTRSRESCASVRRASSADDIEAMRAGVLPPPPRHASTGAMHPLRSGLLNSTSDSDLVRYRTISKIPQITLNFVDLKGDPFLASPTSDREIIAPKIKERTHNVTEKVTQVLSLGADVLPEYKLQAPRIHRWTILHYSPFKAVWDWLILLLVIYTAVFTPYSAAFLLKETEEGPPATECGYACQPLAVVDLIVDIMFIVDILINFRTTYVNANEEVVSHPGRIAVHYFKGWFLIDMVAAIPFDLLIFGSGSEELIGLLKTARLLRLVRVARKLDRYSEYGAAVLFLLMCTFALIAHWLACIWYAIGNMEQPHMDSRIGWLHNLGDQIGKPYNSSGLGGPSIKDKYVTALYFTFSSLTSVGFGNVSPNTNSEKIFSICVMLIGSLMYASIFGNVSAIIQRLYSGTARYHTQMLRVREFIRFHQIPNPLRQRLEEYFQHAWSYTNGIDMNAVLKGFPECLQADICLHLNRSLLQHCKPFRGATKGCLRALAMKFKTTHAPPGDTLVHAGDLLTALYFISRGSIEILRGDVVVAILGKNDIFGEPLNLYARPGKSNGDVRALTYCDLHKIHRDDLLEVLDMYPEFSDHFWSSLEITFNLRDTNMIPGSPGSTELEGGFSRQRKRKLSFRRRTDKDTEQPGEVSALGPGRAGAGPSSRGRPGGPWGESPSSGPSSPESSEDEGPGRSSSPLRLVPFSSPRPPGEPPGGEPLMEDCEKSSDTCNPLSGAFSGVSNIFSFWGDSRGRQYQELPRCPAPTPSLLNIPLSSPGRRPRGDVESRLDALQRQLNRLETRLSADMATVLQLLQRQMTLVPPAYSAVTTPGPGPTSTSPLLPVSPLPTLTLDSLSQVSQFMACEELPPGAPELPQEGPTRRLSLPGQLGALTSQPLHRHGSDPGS

[5] = target: T2, Alpha-1B adrenergic receptor (Rattus norvegicus, UniProt P15823); assay: DRUGMATRIX: Alpha-1B adrenergic receptor radioligand binding (ligand: prazosin); type: cell membranes, Wistar, Liver, Membrane; conditions: Not Active = under 50% inhibition at 10 µM
T2 sequence (P15823 whole entry): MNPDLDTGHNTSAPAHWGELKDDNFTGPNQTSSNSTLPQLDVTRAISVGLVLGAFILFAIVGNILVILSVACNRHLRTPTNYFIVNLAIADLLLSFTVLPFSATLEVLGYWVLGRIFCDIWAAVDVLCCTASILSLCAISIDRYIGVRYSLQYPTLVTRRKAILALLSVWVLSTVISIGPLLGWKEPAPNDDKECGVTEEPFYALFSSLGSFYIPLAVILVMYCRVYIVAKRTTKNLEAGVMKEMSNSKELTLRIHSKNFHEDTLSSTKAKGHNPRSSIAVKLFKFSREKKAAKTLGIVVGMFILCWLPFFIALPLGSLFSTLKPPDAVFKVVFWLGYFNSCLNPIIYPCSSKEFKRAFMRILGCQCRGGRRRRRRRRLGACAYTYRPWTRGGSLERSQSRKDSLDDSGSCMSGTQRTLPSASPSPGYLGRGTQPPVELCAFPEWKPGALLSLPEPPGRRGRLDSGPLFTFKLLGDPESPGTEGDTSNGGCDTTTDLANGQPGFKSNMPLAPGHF

[6] = target: cGMP-specific 3',5'-cyclic phosphodiesterase (Homo sapiens, UniProt O76074); assay: DRUGMATRIX: Phosphodiesterase PDE5 enzyme inhibition (substrate: [3H]cGMP + cGMP); type: tissue-based, Platelet; conditions: platelet; Not Active = under 50% inhibition at 10 µM
Leukotriene C4 synthase = target: T3, Leukotriene C4 synthase (Cavia porcellus, UniProt A6XA80); assay: biochemical; type: tissue-based, Lung;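 also: enzyme inhibition assay of leukotriene C4 synthase, using LTA4 as the substrate; in other assays of this panel Not Active means under 50% inhibition at 10 µM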
T3 sequence (A6XA80 whole entry): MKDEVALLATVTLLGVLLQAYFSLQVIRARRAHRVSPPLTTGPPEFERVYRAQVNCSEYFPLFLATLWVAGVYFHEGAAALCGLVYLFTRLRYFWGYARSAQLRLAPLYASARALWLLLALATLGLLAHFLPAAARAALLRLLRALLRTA

Vasopressin V1a receptor = Vasopressin V1a receptor (Homo sapiens, UniProt P37288); type: cell membranes, Membrane; conditions: hek293; also: in other assays of this panel Not Active means under 50% inhibition at 10 µM
Sequence of Vasopressin V1a receptor (P37288 whole entry): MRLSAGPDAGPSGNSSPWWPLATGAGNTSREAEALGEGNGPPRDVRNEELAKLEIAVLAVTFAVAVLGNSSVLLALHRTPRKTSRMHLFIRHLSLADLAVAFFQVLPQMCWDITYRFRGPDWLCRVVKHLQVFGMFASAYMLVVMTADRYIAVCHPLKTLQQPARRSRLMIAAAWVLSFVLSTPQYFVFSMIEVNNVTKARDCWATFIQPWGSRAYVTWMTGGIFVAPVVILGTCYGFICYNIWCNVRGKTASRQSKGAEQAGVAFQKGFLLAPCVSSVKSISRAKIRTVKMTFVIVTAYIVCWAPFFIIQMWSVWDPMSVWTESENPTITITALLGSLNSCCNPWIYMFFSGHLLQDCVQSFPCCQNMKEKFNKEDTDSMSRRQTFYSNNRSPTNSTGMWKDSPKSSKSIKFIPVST

[7] = DRUGMATRIX: Calcium Channel Type L, Dihydropyridine radioligand binding (ligand: [3H] Nitrendipine); type: cell membranes, Rattus norvegicus, Wistar, Cerebral cortex, Membrane; conditions: Not Active = under 50% inhibition at 10 µM
[8] = target: T4, Alpha-2C adrenergic receptor (Homo sapiens, UniProt P18825); assay: DRUGMATRIX: Adrenergic Alpha-2C radioligand binding (ligand: [3H] MK-912); type: cell membranes, Sf9, Membrane; conditions: sf9
T4 sequence (P18825 whole entry): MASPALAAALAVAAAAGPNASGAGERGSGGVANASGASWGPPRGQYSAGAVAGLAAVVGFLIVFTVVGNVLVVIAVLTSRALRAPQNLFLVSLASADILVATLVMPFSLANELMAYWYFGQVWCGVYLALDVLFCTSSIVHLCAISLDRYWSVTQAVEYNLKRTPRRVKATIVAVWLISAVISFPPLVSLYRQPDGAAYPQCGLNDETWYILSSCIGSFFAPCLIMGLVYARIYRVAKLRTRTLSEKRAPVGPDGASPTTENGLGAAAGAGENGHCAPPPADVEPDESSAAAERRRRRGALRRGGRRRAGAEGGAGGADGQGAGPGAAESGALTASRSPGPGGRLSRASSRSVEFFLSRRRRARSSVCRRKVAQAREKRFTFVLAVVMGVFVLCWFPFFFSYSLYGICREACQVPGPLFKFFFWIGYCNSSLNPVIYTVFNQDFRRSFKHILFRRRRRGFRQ

Cytochrome P450 3A4 = Cytochrome P450 3A4 (Homo sapiens, UniProt P08684); conditions: bti-tn-5b1-4; also: in other assays of this panel Not Active means under 50% inhibition at 10 µM
Sequence of Cytochrome P450 3A4 (P08684 whole entry): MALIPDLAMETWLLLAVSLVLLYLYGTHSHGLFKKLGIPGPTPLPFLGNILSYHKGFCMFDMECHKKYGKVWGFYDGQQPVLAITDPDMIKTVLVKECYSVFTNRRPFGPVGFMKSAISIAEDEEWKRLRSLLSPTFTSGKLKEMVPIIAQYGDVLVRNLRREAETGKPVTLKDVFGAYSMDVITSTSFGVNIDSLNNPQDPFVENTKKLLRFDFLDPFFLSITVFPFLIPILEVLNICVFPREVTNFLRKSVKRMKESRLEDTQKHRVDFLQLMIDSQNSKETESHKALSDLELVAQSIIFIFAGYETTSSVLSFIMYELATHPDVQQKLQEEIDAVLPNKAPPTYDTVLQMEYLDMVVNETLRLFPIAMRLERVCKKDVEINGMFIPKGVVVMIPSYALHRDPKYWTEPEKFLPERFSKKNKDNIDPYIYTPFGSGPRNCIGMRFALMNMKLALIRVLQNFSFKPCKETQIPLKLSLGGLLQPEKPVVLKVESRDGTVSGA

[9] = target: C-C chemokine receptor type 2 (Homo sapiens, UniProt P41597); type: cell membranes, CHO-K1, Membrane; conditions: cho-k1; also: in other assays of this panel Not Active means under 50% inhibition at 10 µM
Sequence of C-C chemokine receptor type 2 (P41597 whole entry): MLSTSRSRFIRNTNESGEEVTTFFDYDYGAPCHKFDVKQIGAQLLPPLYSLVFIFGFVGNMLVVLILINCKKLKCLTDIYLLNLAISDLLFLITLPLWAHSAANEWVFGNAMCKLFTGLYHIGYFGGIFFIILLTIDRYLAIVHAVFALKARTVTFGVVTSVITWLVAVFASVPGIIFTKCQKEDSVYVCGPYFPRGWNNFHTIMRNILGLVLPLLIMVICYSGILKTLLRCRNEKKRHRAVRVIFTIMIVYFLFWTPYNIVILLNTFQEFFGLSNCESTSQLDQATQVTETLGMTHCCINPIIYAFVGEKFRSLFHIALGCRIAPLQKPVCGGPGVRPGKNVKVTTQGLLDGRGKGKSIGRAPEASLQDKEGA

[10] = DRUGMATRIX: Serotonin (5-Hydroxytryptamine) 5-HT3 radioligand binding (ligand: [3H] GR-65630); type: cell membranes, Membrane; conditions: hek293; Not Active = under 50% inhibition at 10 µM
[11] = DRUGMATRIX: GABAA, Chloride Channel, TBOB radioligand binding (ligand: [3H] TBOB); type: cell membranes, Rattus norvegicus, Wistar, Cerebral cortex, Membrane; conditions: Not Active = under 50% inhibition at 10 µM
[12] = DRUGMATRIX: beta-Lactamase enzyme inhibition (substrate: Nitrocefin); set-up: species or system Bacillus cereus; conditions: Not Active = under 50% inhibition at 10 µM

O=c1[nH]cc(F)c(=O)[nH]1 [FLUOROURACIL]
Not Active: IC50 [1] | Ki [1] | IC50 [2] | Ki [2] | IC50 [3] | IC50 (Acetylcholinesterase) | IC50 [4] | Ki [4] | IC50 [5] | IC50 [6] | IC50 (Leukotriene C4 synthase) | IC50 (Vasopressin V1a receptor) | IC50 [7] | Ki [7] | IC50 [8] | IC50 (Cytochrome P450 3A4) | Ki (Cytochrome P450 3A4) | IC50 [9] | IC50 [10] | Ki [10] | IC50 [11] | Ki [11] | IC50 [12] | Ki [12]

OCc1ccccc1 [BENZYL ALCOHOL]
Not Active: IC50 [1] | Ki [1] | IC50 [2] | Ki [2] | IC50 [3] | IC50 (Acetylcholinesterase) | IC50 [4] | Ki [4] | IC50 [5] | IC50 [6] | IC50 (Leukotriene C4 synthase) | IC50 (Vasopressin V1a receptor) | IC50 [7] | Ki [7] | IC50 [8] | IC50 (Cytochrome P450 3A4) | Ki (Cytochrome P450 3A4) | IC50 [9] | IC50 [10] | Ki [10] | IC50 [11] | Ki [11] | IC50 [12] | Ki [12]

CC1(C)[C@@H](O[C@H]2O[C@H](C(=O)O)[C@@H](O)[C@H](O)[C@H]2O[C@@H]2O[C@H](C(=O)O)[C@@H](O)[C@H](O)[C@H]2O)CC[C@]2(C)[C@H]3C(=O)C=C4[C@@H]5C[C@@](C)(C(=O)O)CC[C@]5(C)CC[C@@]4(C)[C@]3(C)CC[C@@H]12 [GLYCYRRHIZIN]
Not Active: IC50 [1] | Ki [1] | IC50 [2] | Ki [2] | IC50 [3] | IC50 (Acetylcholinesterase) | IC50 [4] | Ki [4] | IC50 [5] | IC50 [6] | IC50 (Leukotriene C4 synthase) | IC50 (Vasopressin V1a receptor) | IC50 [7] | Ki [7] | IC50 [8] | IC50 (Cytochrome P450 3A4) | Ki (Cytochrome P450 3A4) | IC50 [9] | IC50 [10] | Ki [10] | IC50 [11] | Ki [11] | IC50 [12] | Ki [12]

CCCCCCCCCc1ccc(O)cc1 [4-NONYLPHENOL]
Not Active: IC50 [1] | Ki [1] | IC50 [2] | Ki [2] | IC50 [3] | IC50 (Acetylcholinesterase) | IC50 [4] | Ki [4] | IC50 [5] | IC50 [6] | IC50 (Leukotriene C4 synthase) | IC50 (Vasopressin V1a receptor) | IC50 [7] | Ki [7] | IC50 [8] | IC50 (Cytochrome P450 3A4) | Ki (Cytochrome P450 3A4) | IC50 [9] | IC50 [10] | Ki [10] | IC50 [11] | Ki [11] | IC50 [12] | Ki [12]

CCCC[C@@H](CC)COC(=O)c1ccccc1C(=O)OC[C@@H](CC)CCCC [BIS(2-ETHYLHEXYL)PHTHALATE]
Not Active: IC50 [1] | Ki [1] | IC50 [2] | Ki [2] | IC50 [3] | IC50 (Acetylcholinesterase) | IC50 [4] | Ki [4] | IC50 [5] | IC50 [6] | IC50 (Leukotriene C4 synthase) | IC50 (Vasopressin V1a receptor) | IC50 [7] | Ki [7] | IC50 [8] | IC50 (Cytochrome P450 3A4) | Ki (Cytochrome P450 3A4) | IC50 [9] | IC50 [10] | Ki [10] | IC50 [11] | Ki [11] | IC50 [12] | Ki [12]

O=C1OC2(c3ccc(O)cc3Oc3cc(O)ccc32)c2ccccc21 [FLUORESCEIN]
Not Active: IC50 [1] | Ki [1] | IC50 [2] | Ki [2] | IC50 [3] | IC50 (Acetylcholinesterase) | IC50 [4] | Ki [4] | IC50 [5] | IC50 [6] | IC50 (Leukotriene C4 synthase) | IC50 (Vasopressin V1a receptor) | IC50 [7] | Ki [7] | IC50 [8] | IC50 (Cytochrome P450 3A4) | Ki (Cytochrome P450 3A4) | IC50 [9] | IC50 [10] | Ki [10] | IC50 [11] | Ki [11] | IC50 [12] | Ki [12]

CC(C)(S)[C@@H](N)C(=O)O [PENICILLAMINE]
Not Active: IC50 [1] | Ki [1] | IC50 [2] | Ki [2] | IC50 [3] | IC50 (Acetylcholinesterase) | IC50 [4] | Ki [4] | IC50 [5] | IC50 [6] | IC50 (Leukotriene C4 synthase) | IC50 (Vasopressin V1a receptor) | IC50 [7] | Ki [7] | IC50 [8] | IC50 (Cytochrome P450 3A4) | Ki (Cytochrome P450 3A4) | IC50 [9] | IC50 [10] | Ki [10] | IC50 [11] | Ki [11] | IC50 [12] | Ki [12]

From ChEMBL document CHEMBL1909046, “DrugMatrix in vitro pharmacology data”
